# Data taken from patent US9346795B2, “Substituted sulfonamides useful as antiapoptotic Bcl inhibitors” (Bristol-Myers Squibb Company, priority 2011, dated 2016).
# How the values were obtained:
# Bcl-xL = Bcl-xL (Homo sapiens (Human), UniProt Q07817); test: Bcl-xL/Bim Fluorescence Resonance Energy Transfer Assay (FRET); type: binding
# How it was run: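 Biotin-Bcl-xL was incubated with Bim and compound at eleven concentrations for 60 min at room temperature. Streptavidin-terbium detection was then added for 30 min in the dark, and FRET was read. IC50 values were obtained by non-linear regression.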
# Bcl-2 = Bcl-2 (Homo sapiens (Human), UniProt P10415); test: Bcl-2/Bim Fluorescence Polarization Assay (FPA); type: binding
# Bcl-2, sequence (P10415 whole entry): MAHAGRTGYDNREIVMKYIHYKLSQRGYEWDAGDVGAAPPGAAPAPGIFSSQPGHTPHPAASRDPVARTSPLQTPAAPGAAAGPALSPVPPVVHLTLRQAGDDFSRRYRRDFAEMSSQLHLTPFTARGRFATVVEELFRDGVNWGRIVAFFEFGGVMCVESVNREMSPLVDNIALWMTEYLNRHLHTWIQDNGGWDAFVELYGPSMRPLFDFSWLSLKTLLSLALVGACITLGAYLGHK
# Bcl-xL, sequence (Q07817 whole entry): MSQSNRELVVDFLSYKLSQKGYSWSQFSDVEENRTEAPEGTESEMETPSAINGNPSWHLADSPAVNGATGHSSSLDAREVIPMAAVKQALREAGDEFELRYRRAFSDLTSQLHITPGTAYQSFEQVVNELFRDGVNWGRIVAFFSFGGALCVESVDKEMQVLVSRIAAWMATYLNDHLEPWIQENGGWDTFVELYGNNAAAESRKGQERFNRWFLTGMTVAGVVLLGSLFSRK
SMILES,IC50 (Bcl-xL),IC50 (Bcl-2)
"CCCCc1c(-c2ccc(C(=O)NS(=O)(=O)c3ccc4ccccc4c3)cc2C(=O)N2CCc3ccccc3C2)c(CO)nn1-c1ccc(Oc2ccccc2)cc1 [Example 241, 4-(5-butyl-3-(hydroxymethyl)-1-(4-phenoxyphenyl)-1H-pyrazol-4-yl)-N-(naphthalen-2-ylsulfonyl)-3-(1,2,3,4-tetrahydroisoquinoline-2-carbonyl)benzamide]",30 nM,130 nM
"CCCCc1c(-c2ccc(C(=O)NS(=O)(=O)c3ccc4ccccc4c3)cc2C(=O)N2CCc3ccccc3C2)c(CO)nn1-c1ccc(Oc2ccc(Cl)cc2)cc1 [Example 242, 4-(5-butyl-1-(4-(4-chlorophenoxy)phenyl)-3-(hydroxymethyl)-1H-pyrazol-4-yl)-N-(naphthalen-2-ylsulfonyl)-3-(1,2,3,4-tetrahydroisoquinoline-2-carbonyl)benzamide]",40 nM,20 nM
"CCCCc1c(-c2ccc(C(=O)NS(=O)(=O)c3ccc4ccccc4c3)cc2C(=O)N2CCc3ccccc3C2)c(CO)nn1-c1ccc(Oc2cccc(Cl)c2)cc1 [Example 243, 4-(5-butyl-1-(4-(3-chlorophenoxy)phenyl)-3-(hydroxymethyl)-1H-pyrazol-4-yl)-N-(naphthalen-2-ylsulfonyl)-3-(1,2,3,4-tetrahydroisoquinoline-2-carbonyl)benzamide]",20 nM,7.83 nM
"CCCCc1c(-c2ccc(C(=O)NS(=O)(=O)c3ccc4ccccc4c3)cc2C(=O)N2CCc3ccccc3C2)c(CO)nn1-c1ccc(CCO)cc1 [Example 245, 4-(5-butyl-1-(4-(2-hydroxyethyl)phenyl)-3-(hydroxymethyl)-1H-pyrazol-4-yl)-N-(naphthalen-2-ylsulfonyl)-3-(1,2,3,4-tetrahydroisoquinoline-2-carbonyl)benzamide]",6.14 nM,20 nM
"CCCCc1c(-c2ccc(C(=O)NS(=O)(=O)c3ccc4c(Cl)ccc(Br)c4c3)cc2C(=O)N2CCc3ccccc3C2)c(C(=O)OCC)nn1-c1ccc(Oc2cccc(Cl)c2)cc1 [Example 251, ethyl 4-(4-(8-bromo-5-chloronaphthalen-2-ylsulfonylcarbamoyl)-2-(1,2,3,4-tetrahydroisoquinoline-2-carbonyl)phenyl)-5-butyl-1-(4-(3-chlorophenoxy)phenyl)-1H-pyrazole-3-carboxylate]",50 nM,20 nM
"CCCCc1c(-c2ccc(C(=O)NS(=O)(=O)c3ccc4cccc(Cl)c4c3)cc2C(=O)N2CCc3ccccc3C2)c(CO)nn1-c1ccc(Oc2cccc(Cl)c2)cc1 [Example 252, 4-(5-butyl-1-(4-(3-chlorophenoxy)phenyl)-3-(hydroxymethyl)-1H-pyrazol-4-yl)-N-(8-chloronaphthalen-2-ylsulfonyl)-3-(1,2,3,4-tetrahydroisoquinoline-2-carbonyl)benzamide]",10 nM,6.37 nM
"CCCCc1c(-c2ccc(C(=O)NS(=O)(=O)c3ccc4ccccc4c3)cc2C(=O)N2Cc3ccccc3C[C@H]2CO)c(CO)nn1-c1ccccc1 [Example 260, 4-(5-Butyl-3-(hydroxymethyl)-1-phenyl-1H-pyrazol-4-yl)-3-((S)-3-(hydroxymethyl)-1,2,3,4-tetrahydroisoquinoline-2-carbonyl)-N-(naphthalen-2-ylsulfonyl)benzamide]",8.01 nM,10 nM
"CCCCN(CCCC)C(=O)c1cn(C)c(-c2ccc(C(=O)NS(=O)(=O)c3ccc4ccccc4c3)cc2C(=O)N2CCc3ccccc3C2)n1 [Example 264, N,N-Dibutyl-1-methyl-2-(4-(naphthalen-2-ylsulfonylcarbamoyl)-2-(1,2,3,4-tetrahydroisoquinoline-2-carbonyl)phenyl)-1H-imidazole-4-carboxamide]",40 nM,110 nM
"CCCCN(CCCC)C(=O)c1cn(CC(=O)NC)c(-c2ccc(C(=O)NS(=O)(=O)c3ccc4ccccc4c3)cc2C(=O)N2CCc3ccccc3C2)n1 [Example 265, N,N-Dibutyl-1-(2-(methylamino)-2-oxoethyl)-2-(4-(naphthalen-2-ylsulfonylcarbamoyl)-2-(1,2,3,4-tetrahydroisoquinoline-2-carbonyl)phenyl)-1H-imidazole-4-carboxamide]",70 nM,430 nM
"CCCCN(CCCC)C(=O)c1cn(CC(=O)O)c(-c2ccc(C(=O)NS(=O)(=O)c3cccc4ccccc34)cc2C(=O)N2CCc3ccccc3C2)n1 [Example 269, 2-(4-(Dibutylcarbamoyl)-2-(4-(naphthalen-1-ylsulfonylcarbamoyl)-2-(1,2,3,4-tetrahydroisoquinoline-2-carbonyl)phenyl)-1H-imidazol-1-yl)acetic acid]",30 nM,140 nM

# Next, values leading:
IC50 (Bcl-xL),IC50 (Bcl-2),SMILES
10 nM,6.97 nM,"CCCCN(CCCC)C(=O)c1cn(C)c(-c2ccc(C(=O)NS(=O)(=O)c3ccc4cccc(I)c4c3)cc2C(=O)N2Cc3ccccc3C[C@H]2CN)n1 [Example 282, 2-(2-((S)-3-(Aminomethyl)-1,2,3,4-tetrahydroisoquinoline-2-carbonyl)-4-(8-iodonaphthalen-2-ylsulfonylcarbamoyl)phenyl)-N,N-dibutyl-1-methyl-1H-imidazole-4-carboxamide]"
70 nM,600 nM,"CCCCN(CCCC)C(=O)c1cccc(-c2ccc(C(=O)NS(=O)(=O)c3ccc4ccccc4c3)cc2C(=O)N2CCc3ccccc3C2)n1 [Example 286, N,N-Dibutyl-6-(4-(naphthalen-2-ylsulfonylcarbamoyl)-2-(1,2,3,4-tetrahydroisoquinoline-2-carbonyl)phenyl)picolinamide]"
60 nM,10 nM,"CCCCN(CCCC)c1ccc(Br)c(-c2ccc(C(=O)NS(=O)(=O)c3ccc4cccc(Cl)c4c3)cc2C(=O)N2CCc3ccccc3C2)n1 [Example 289, 4-(3-Bromo-6-(dibutylamino)pyridin-2-yl)-N-(8-chloronaphthalen-2-ylsulfonyl)-3-(1,2,3,4-tetrahydroisoquinoline-2-carbonyl)benzamide]"
80 nM,60 nM,"CCCCN(CCCC)c1ncc(Cl)c(-c2ccc(C(=O)NS(=O)(=O)c3ccc4ccccc4c3)cc2C(=O)N2Cc3ccccc3C[C@H]2CO)n1 [Example 315, 4-(5-Chloro-2-(dibutylamino)pyrimidin-4-yl)-3-((S)-3-(hydroxymethyl)-1,2,3,4-tetrahydroisoquinoline-2-carbonyl)-N-(naphthalen-2-ylsulfonyl)benzamide]"
160 nM,10 nM,"CCCCN(Cc1ccc(Cl)c(Cl)c1)c1ncc(Cl)c(-c2ccc(C(=O)NS(=O)(=O)c3ccc4cccc(Cl)c4c3)cc2C(=O)N2CCc3ccccc3C2)n1 [Example 322, 4-(2-(Butyl (3,4-dichlorobenzyl)amino)-5-chloropyrimidin-4-yl)-N-(8-chloronaphthalen-2-ylsulfonyl)-3-(1,2,3,4-tetrahydroisoquinoline-2-carbonyl)benzamide]"
10 nM,8.78 nM,"CCCN(CCC)c1ncc(Cl)c(-c2ccc(C(=O)NS(=O)(=O)c3ccc4cccc(Cl)c4c3)cc2C(=O)N2Cc3ccccc3C[C@H]2CO)n1 [Example 328, 4-(5-Chloro-2-(dipropylamino)pyrimidin-4-yl)-N-(8-chloronaphthalen-2-ylsulfonyl)-3-((S)-3-(hydroxymethyl)-1,2,3,4-tetrahydroisoquinoline-2-carbonyl)benzamide]"
20 nM,5.09 nM,"CCCN(CCC)c1ncc(Cl)c(-c2ccc(C(=O)NS(=O)(=O)c3ccc4cccc(Cl)c4c3)cc2C(=O)N2Cc3ccccc3C[C@H]2CN)n1 [Example 329, 3-((S)-3-(Aminomethyl)-1,2,3,4-tetrahydroisoquinoline-2-carbonyl)-4-(5-chloro-2-(dipropylamino)pyrimidin-4-yl)-N-(8-chloronaphthalen-2-ylsulfonyl)benzamide]"
